Experimental data published in paper PMC6272887, “Discovery of Potent c-MET Inhibitors with New Scaffold Having Different Quinazoline, Pyridine and Tetrahydro-Pyridothienopyrimidine Headgroups” (Molecules, 2016).

Legend:
c-MET [1] = biological target: T1, c-MET (Homo sapiens, UniProt P08581); assay: In vitro kinase assay (HTScan MET Kinase Assay Kit, colorimetric ELISA); assay type: biochemical; details: ATP 10 µM; three independent determinations; read-out: Enzymatic Inhibition (IC50, µM) c-MET
T1 construct: purchased Cell Signaling Technology, Inc
T1 sequence (P08581 25-1390): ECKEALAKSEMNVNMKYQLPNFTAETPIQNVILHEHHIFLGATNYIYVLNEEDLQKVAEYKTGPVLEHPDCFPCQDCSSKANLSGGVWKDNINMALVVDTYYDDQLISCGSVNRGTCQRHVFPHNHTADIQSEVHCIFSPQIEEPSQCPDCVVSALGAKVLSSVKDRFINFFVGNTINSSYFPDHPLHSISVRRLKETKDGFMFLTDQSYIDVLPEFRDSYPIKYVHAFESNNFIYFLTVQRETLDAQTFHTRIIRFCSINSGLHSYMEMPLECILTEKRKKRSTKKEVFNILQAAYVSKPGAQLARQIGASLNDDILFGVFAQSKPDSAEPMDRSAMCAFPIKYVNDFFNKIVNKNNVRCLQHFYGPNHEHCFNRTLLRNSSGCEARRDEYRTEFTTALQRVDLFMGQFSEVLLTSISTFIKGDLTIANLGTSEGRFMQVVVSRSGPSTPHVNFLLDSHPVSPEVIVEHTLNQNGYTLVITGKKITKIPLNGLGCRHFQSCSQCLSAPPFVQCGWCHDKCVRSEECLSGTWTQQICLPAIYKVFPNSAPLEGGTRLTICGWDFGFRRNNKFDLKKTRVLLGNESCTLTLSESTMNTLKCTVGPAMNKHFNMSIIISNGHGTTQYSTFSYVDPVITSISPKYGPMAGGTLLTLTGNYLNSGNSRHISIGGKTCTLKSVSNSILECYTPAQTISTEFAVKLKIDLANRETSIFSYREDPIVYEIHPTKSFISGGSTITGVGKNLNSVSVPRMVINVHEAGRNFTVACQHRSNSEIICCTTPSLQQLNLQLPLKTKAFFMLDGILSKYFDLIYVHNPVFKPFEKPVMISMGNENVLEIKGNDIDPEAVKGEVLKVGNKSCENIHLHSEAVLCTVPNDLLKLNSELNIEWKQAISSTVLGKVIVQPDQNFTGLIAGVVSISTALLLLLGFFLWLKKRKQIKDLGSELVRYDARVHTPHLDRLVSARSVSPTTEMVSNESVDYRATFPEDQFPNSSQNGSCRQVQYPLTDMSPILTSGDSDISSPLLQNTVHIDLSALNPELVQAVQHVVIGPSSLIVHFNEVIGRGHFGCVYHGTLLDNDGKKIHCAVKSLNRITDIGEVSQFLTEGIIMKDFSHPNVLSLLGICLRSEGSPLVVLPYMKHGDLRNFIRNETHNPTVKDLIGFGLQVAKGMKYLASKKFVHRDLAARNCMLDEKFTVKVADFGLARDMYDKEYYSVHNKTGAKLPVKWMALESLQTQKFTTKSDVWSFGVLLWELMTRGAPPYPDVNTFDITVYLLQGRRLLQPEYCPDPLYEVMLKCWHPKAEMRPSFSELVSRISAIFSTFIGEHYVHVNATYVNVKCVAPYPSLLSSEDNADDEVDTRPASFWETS
Method: (§1) In vitro kinase inhibitory ability was determined using HTScan MET Kinase Assay Kit, HTScan VEGF Receptor 2 Kinase Assay Kit, HTScan c-Kit Kinase Assay Kit, HTScan PDGF Receptor β Kinase Assay Kit and HTScan EGFR Kinase Assay Kit(purchased from Cell Signaling Technology, Inc. Danvers, MA, USA) by colorimetric ELISA assay according to the manufacturer’s instructions. Briefly, reaction cocktail containing recombinant human MET kinase or other kinases were incubated with various concentrations of tested compounds or DMSO (0.1%) for 5 min at room temperature, and then ATP/substrate peptide cocktail was added to the pre-incubated reaction cocktail. After incubation at room temperature for 30 min, the reaction was stopped and transferred to a 96-wellstreptavidin-coated plate, and incubated for 1 h at room temperature. Primary antibody (phosphorylated tyrosine monoclonal antibody (pTyr-100), 1:1000 in PBS/T with 1% bovine serum albumin (BSA)) was added into per well until the wells were washed thrice with PBS/T. After incubated at room temperature for 1 h, phosphorylation of the substrate was monitored with HRP-labeled anti-mouse IgG antibody (1:500 in PBS/T with 1% BSA), followed by a chromogenic reaction. Finally, the kinase assay was detected at 450 nm with microplate reader. The reaction processed with only DMSO (0.1%) served as a vehicle control. […] The kinase assay was performed thrice independently.

[2] = system: Hep-G2 (human liver cancer); assay: Cell proliferative assay (MTT), Hep-G2; assay type: cell-based; details: Homo sapiens, HepG2, Hep-G2 cells, read-out: Proliferative Inhibition (IC50, µM) Hep-G2
Method: (§2) The anti-proliferative activities of synthesized compounds against HeLa, Hep-G2 and MCF-7 cells were evaluated by MTT assay. HeLa cells were grown to log phase in RPMI 1640 medium supplemented with 10% fetal bovine serum. Hep-G2 and MCF-7 cells were grown to log phase in DMEM medium supplemented with 10% fetal bovine serum. After diluting to […] with the complete medium, 100 µL of the obtained cell suspension was added to each well of 96-well culture plates. The subsequent incubation was permitted at 37 °C, 5% CO2 atmosphere for 48 h before the anti-proliferative assessments. Tested samples at pre-set concentrations were added to 6 wells. Before the anti-proliferative assessments, 20 µL of PBS containing 2.5 mg∙mL^−1 of MTT was added to each well. Four h later, 100 µL extraction solution (DMSO) was added to each well and the optical density was measured at a wavelength of 570 nm on an ELISA microplate reader.

VEGFR-2 = biological target: T2, VEGFR-2 (Homo sapiens, UniProt P35968); assay: In vitro kinase assay (HTScan VEGF Receptor 2 Kinase Assay Kit); assay type: biochemical; details: ATP 10 µM; read-out: Enzyme, IC50, µM VEGFR-2
T2 construct: purchased Cell Signaling Technology, Inc
Method: In vitro kinase inhibitory ability was determined using HTScan MET Kinase Assay Kit, HTScan VEGF Receptor 2 Kinase Assay Kit, HTScan c-Kit Kinase Assay Kit, HTScan PDGF Receptor β Kinase Assay Kit and HTScan EGFR Kinase Assay Kit(purchased from Cell Signaling Technology, Inc. Danvers, MA, USA) by colorimetric ELISA assay according to the manufacturer’s instructions. Briefly, reaction cocktail containing recombinant human MET kinase or other kinases were incubated with various concentrations of tested compounds or DMSO (0.1%) for 5 min at room temperature, and then ATP/substrate peptide cocktail was added to the pre-incubated reaction cocktail. After incubation at room temperature for 30 min, the reaction was stopped and transferred to a 96-wellstreptavidin-coated plate, and incubated for 1 h at room temperature. Primary antibody (phosphorylated tyrosine monoclonal antibody (pTyr-100), 1:1000 in PBS/T with 1% bovine serum albumin (BSA)) was added into per well until the wells were washed thrice with PBS/T. After incubated at room temperature for 1 h, phosphorylation of the substrate was monitored with HRP-labeled anti-mouse IgG antibody (1:500 in PBS/T with 1% BSA), followed by a chromogenic reaction. Finally, the kinase assay was detected at 450 nm with microplate reader. The reaction processed with only DMSO (0.1%) served as a vehicle control. […]

EGFR = biological target: T3, EGFR (Homo sapiens, UniProt P00533); assay: In vitro kinase assay (HTScan EGFR Kinase Assay Kit); assay type: biochemical; details: for IC50: ATP 10 µM, read-out: Enzyme, IC50, µM EGFR; for selectivity against EGFR: relative to c-MET
T3 construct: purchased Cell Signaling Technology, Inc
T3 sequence (P00533 25-1210): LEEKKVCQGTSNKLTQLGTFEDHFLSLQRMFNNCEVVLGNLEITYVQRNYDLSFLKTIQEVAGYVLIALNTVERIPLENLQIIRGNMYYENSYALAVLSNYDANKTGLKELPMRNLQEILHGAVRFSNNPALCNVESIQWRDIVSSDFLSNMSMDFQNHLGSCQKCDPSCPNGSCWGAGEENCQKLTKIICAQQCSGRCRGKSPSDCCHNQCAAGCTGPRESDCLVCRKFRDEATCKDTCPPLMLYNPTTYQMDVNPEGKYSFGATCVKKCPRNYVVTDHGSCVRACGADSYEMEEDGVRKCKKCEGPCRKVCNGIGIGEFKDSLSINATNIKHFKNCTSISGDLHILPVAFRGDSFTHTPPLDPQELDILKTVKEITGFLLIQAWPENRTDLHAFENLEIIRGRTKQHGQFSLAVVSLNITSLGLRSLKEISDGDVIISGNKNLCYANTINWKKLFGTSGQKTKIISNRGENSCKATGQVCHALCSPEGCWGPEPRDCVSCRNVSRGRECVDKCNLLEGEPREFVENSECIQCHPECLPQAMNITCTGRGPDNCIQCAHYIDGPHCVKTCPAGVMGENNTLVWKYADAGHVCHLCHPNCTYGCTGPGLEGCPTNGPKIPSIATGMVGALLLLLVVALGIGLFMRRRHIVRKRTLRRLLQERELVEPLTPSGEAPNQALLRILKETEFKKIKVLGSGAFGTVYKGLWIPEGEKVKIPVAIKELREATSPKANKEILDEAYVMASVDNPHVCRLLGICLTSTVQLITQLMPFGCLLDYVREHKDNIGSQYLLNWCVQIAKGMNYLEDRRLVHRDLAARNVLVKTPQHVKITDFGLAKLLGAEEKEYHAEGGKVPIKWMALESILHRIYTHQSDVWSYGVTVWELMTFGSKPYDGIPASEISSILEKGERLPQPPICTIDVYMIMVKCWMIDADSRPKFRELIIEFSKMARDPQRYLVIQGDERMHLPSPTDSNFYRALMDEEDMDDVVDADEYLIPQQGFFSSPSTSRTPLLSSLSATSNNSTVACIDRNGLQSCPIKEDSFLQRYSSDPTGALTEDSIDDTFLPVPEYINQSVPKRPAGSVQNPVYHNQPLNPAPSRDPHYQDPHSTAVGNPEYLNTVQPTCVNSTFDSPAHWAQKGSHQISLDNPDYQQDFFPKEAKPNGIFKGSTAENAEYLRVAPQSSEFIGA
Method: as §1

[3] = system: MCF-7 (human breast cancer); assay: Cell proliferative assay (MTT), MCF-7; assay type: cell-based; details: Homo sapiens, MCF7, MTT assay, MCF-7 cells; read-out: Proliferative Inhibition (IC50, µM) MCF-7
Method: as §2

[4] = system: HeLa (human cervical carcinoma); assay: Cell proliferative assay (MTT), HeLa; assay type: cell-based; details: Homo sapiens, HeLa, HeLa cells, read-out: Proliferative Inhibition (IC50, µM) HeLa
Method: as §2

c-Kit = biological target: T4, c-Kit (Homo sapiens, UniProt P10721); assay: In vitro kinase assay (HTScan c-Kit Kinase Assay Kit); assay type: biochemical; details: for IC50: ATP 10 µM, read-out: Enzyme, IC50, µM c-Kit; for selectivity against c-Kit: relative to c-MET
T4 construct: purchased Cell Signaling Technology, Inc
T4 sequence (P10721 26-976): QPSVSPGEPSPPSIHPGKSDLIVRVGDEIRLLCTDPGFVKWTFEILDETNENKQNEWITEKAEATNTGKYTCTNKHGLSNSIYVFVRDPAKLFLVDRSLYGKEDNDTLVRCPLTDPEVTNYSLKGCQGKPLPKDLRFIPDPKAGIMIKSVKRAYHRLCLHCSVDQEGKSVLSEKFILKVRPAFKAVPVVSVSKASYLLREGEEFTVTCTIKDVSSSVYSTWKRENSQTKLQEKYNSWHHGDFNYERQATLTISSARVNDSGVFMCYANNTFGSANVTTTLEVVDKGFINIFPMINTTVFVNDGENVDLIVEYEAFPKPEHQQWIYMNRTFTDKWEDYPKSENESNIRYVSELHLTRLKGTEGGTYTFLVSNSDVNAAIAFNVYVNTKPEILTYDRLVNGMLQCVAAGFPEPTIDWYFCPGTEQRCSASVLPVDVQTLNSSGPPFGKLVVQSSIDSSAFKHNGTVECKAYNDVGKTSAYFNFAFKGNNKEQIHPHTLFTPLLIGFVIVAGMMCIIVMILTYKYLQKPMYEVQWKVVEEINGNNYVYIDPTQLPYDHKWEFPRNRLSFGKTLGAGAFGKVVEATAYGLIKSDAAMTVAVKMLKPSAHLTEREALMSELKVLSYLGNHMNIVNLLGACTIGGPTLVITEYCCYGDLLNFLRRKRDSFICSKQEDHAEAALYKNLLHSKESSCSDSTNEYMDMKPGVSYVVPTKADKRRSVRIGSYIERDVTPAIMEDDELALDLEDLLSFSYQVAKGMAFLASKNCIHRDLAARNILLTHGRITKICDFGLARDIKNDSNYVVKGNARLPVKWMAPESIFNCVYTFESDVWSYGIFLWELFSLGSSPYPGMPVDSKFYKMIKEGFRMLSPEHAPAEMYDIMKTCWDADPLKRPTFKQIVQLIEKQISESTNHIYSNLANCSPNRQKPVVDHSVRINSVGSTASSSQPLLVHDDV
Method: as §1

PDGFR-b = biological target: T5, PDGFR-b (Homo sapiens, UniProt P09619); assay: In vitro kinase assay (HTScan PDGF Receptor β Kinase Assay Kit); assay type: biochemical; details: for IC50: ATP 10 µM, read-out: Enzyme, IC50, µM PDGFR-b; for selectivity against PDGFR-b: relative to c-MET
T5 construct: purchased Cell Signaling Technology, Inc
T5 sequence (P09619 33-1106): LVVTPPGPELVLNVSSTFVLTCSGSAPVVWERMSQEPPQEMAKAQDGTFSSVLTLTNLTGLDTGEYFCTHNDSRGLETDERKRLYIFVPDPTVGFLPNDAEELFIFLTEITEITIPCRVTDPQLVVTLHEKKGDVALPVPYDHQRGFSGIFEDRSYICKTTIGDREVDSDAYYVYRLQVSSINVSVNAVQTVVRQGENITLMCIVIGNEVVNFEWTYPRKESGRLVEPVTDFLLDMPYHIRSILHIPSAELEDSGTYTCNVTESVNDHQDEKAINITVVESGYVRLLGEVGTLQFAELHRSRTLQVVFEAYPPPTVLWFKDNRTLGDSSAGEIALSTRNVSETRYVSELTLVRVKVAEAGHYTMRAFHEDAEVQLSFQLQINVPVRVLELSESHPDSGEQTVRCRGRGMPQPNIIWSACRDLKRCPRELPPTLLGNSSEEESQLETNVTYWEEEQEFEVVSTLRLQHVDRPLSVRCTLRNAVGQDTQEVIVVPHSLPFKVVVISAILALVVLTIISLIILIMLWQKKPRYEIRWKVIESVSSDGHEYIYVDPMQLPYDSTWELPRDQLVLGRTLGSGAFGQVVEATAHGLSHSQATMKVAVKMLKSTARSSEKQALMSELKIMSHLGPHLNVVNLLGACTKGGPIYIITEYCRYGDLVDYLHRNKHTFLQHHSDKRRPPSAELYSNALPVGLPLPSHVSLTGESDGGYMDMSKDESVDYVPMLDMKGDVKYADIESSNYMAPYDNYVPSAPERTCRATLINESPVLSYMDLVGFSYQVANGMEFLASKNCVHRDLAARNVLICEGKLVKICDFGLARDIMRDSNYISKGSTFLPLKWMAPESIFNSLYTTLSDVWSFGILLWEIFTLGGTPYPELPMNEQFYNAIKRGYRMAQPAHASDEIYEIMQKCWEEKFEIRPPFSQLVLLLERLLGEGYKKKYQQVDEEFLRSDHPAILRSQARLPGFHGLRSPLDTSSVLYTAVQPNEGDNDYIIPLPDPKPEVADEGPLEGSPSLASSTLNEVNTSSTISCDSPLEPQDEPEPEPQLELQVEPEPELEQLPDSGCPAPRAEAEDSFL
Method: as §1

c-MET [5] = system: c-MET; design: method as in PMID 19896842, PMID 24485123, PMID 23041435; details: cell-free assays; cited from earlier work

SMILES | IC50 (c-MET [1]) | IC50 [2] | IC50 (VEGFR-2) | IC50 (EGFR) | selectivity against EGFR (EGFR) | IC50 [3] | IC50 [4] | IC50 (c-Kit) | selectivity against c-Kit (c-Kit) | melting point | IC50 (PDGFR-b) | selectivity against PDGFR-b (PDGFR-b) | IC50 (c-MET [5])
COc1cc2ncnc(Oc3ccc(NC(=O)C4(C(=O)Nc5ccc(F)cc5)CC4)cc3F)c2cc1OC [Compound 13b] | 0.02 µM | 12.8 ± 0.28 µM | 0.1 ± 0.02 µM | > 10 µM | > 500 fold | 1.2 ± 0.21 µM | 4.7 ± 0.11 µM | 4.3 ± 0.11 µM | 215 fold | 180 to 182 °C | > 10 µM | > 500 fold | –
CC(C)(C)OC(=O)N1CCc2c(sc3ncnc(Oc4ccc(NC(=O)C5(C(=O)Nc6ccc(F)cc6)CC5)cc4F)c23)C1 [Compound 13h, tert-butyl-4-{2-fluoro-4-(1-((4-fluorophenyl)carbamoyl)cyclopropanecarboxamido)phenoxy}-5,6-dihydropyrido(4’,3’:4,5)thieno(2,3-d)pyrimidine-7(8H)-carboxylate] | 0.05 ± 0.01 µM | 1.7 ± 0.04 µM | 0.25 ± 0.02 µM | > 10 µM | > 200 fold | 2.8 ± 0.23 µM | 4.6 ± 0.03 µM | 5.2 ± 0.09 µM | 104 fold | 171 to 173 °C | 7.2 ± 0.1 µM | 144 fold | –
COc1cc2nccc(Oc3ccc(NC(=O)C4(C(=O)Nc5ccc(F)cc5)CC4)cc3)c2cc1OC [XL184, Cabozantinib, reference compound] | – | 49.1 ± 0.25 µM | – | – | – | – | – | – | – | – | – | – | 0.0013 µM
